According to patent US12351581B2, “Compounds for FGFR inhibition” (Cogent Biosciences, Inc., priority 2023, dated 2025):
Where two headings read alike, the source gives them in different places.

Legend:
FGFR2 = molecular target: T1, FGFR2 (Homo sapiens, UniProt P21802); assay: FGFR wild type enzyme assay (HTRF KinEASE-TK); type: biochemical; details: ATP 2 uM
T1 construct: biochemical assays using purified intracellular domains of the respective isoforms; purchased Carna Bioscience 08-134
How it was run: (§1)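 Purified intracellular kinase domains, enzyme pre-incubated 30 min with compound (11-point 1:3 dilutions, typically 10,000-0.17 nM), then ATP plus 0.5 uM TK-peptide, 60 min at room temperature in HEPES pH7.5 with Mg2+/Mn2+. HTRF 665/615 ratio converted to percent of control; IC50 from four-parameter logistic fit.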

FGFR2 N549H = molecular target: T2, FGFR2 N549H (Homo sapiens, UniProt P21802, N549H); assay: FGFR mutant enzyme assay (HTRF KinEASE-TK); type: biochemical; details: ATP 0.9 uM
T2 construct: biochemical assays using purified intracellular domains of the respective isoforms; purchased Carna Bioscience 08-532
T2 sequence (P21802 399-821 N549H limits assumed): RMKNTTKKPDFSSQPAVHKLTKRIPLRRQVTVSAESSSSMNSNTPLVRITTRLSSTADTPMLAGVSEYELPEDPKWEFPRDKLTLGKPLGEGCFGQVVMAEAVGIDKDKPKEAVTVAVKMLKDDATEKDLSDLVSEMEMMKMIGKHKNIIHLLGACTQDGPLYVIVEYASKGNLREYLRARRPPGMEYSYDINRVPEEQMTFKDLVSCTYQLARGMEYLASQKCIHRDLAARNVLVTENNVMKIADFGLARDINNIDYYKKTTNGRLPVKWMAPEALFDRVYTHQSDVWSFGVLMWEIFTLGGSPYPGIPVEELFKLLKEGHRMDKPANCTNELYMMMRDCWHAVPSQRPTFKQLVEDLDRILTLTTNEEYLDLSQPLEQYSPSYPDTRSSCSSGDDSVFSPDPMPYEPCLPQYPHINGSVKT
How it was run: as §1

FGFR2 V564I = molecular target: T3, FGFR2 V564I (Homo sapiens, UniProt P21802, V564I); assay: FGFR mutant enzyme assay (HTRF KinEASE-TK); type: biochemical; details: ATP 0.4 uM
T3 construct: biochemical assays using purified intracellular domains of the respective isoforms; purchased Carna Bioscience 08-546
T3 sequence (P21802 399-821 V564I limits assumed): as the sequence (P21802 399-821 N549H limits assumed) above, with H151N, V166I counted along it
How it was run: as §1

FGFR2 V564F = molecular target: T4, FGFR2 V564F (Homo sapiens, UniProt P21802, V564F); assay: FGFR mutant enzyme assay (HTRF KinEASE-TK); type: biochemical; details: ATP 1.5 uM
T4 construct: biochemical assays using purified intracellular domains of the respective isoforms; purchased SignalChem Biotech F05-12FG
T4 sequence (P21802 399-821 V564F limits assumed): as the sequence (P21802 399-821 N549H limits assumed) above, with H151N, V166F counted along it
How it was run: as §1

FGFR2-WT = FGFR2-WT (Homo sapiens, UniProt P21802); assay: Phosphorylated FGFR2-WT (pFGFR2-WT) cell assay, KATOIII cells; type: cell-based; details: 1 hour incubation, phospho FGFR2 HTRF
Sequence of FGFR2-WT (P21802 430-767 limits assumed): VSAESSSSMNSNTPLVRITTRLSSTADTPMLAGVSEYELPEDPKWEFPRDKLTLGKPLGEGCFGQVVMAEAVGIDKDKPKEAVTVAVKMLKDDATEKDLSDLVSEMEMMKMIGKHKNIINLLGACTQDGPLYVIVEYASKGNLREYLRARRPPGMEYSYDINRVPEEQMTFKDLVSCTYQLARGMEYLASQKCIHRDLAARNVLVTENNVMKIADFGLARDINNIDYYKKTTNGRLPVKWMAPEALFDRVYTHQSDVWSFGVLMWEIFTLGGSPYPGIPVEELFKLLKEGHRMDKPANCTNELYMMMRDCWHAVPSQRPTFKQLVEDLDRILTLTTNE
How it was run: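 KATOIII cells treated 1 h at 37 °C with threefold compound dilutions (10 μM to 0.5 nM). Lysate phospho-FGFR2 (Tyr653/654) read by HTRF.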

[1] = compound table after the examples, read-out: Enz FGFR2

T1 sequence (P21802 399-821 limits assumed): as the sequence (P21802 399-821 N549H limits assumed) above, with H151N counted along it

| Structure (SMILES) | IC50 (FGFR2; Table 3, read-out: FGFR2 Enz) [nM] | IC50 (FGFR2; [1]) [nM] | IC50 (FGFR2 N549H) [nM] | IC50 (FGFR2 V564I) [nM] | IC50 (FGFR2 V564F) [nM] | IC50 (FGFR2-WT) [nM] |
| --- | --- | --- | --- | --- | --- | --- |
| Cc1c(-c2cc(O[C@H](C)c3ccc(F)cn3)c3c(C#N)cnn3c2)cnn1[C@@H]1CCCN(C(=O)[C@H](C)O)C1 [Compound 49, 4-((R)-1-(5-fluoropyridin-2-yl)ethoxy)-6-(1-((R)-1-((S)-2-hydroxypropanoyl)piperidin-3-yl)-5-methyl-1H-pyrazol-4-yl)pyrazolo[1,5-a]pyridine-3-carbonitrile] | 2.6 | 2.6 | 3 | 10 | 8 | 15 |
| Cc1c(-c2cc(O[C@@H](C)c3ccc(F)cn3)c3c(C#N)cnn3c2)cnn1[C@H]1CC[C@@H](O)CC1 [Compound 50, 4-((S)-1-(5-fluoropyridin-2-yl)ethoxy)-6-(1-((1s,4R)-4-hydroxycyclohexyl)-5-methyl-1H-pyrazol-4-yl)pyrazolo[1,5-a]pyridine-3-carbonitrile] | 5.5 | 5.5 | 6 | 20 | 11 | 57 |
| Cc1c(-c2cc(OC(C)c3ccc(F)cn3)c3c(C#N)cnn3c2)cnn1[C@H]1CC[C@H](O)CC1 (some centres unmarked) [Compound 51, 4-(1-(5-fluoropyridin-2-yl)ethoxy)-6-(1-((1r,4r)-4-hydroxycyclohexyl)-5-methyl-1H-pyrazol-4-yl)pyrazolo[1,5-a]pyridine-3-carbonitrile] | 1 | 1 | 1 | 4 | 2 | 6.5 |
| Cc1c(-c2cc(OC(C)c3ccc(F)cn3)c3c(C#N)cnn3c2)cnn1[C@H]1CC[C@@H](O)CC1 (some centres unmarked) [Compound 52, 4-(1-(5-fluoropyridin-2-yl)ethoxy)-6-(1-((1s,4s)-4-hydroxycyclohexyl)-5-methyl-1H-pyrazol-4-yl)pyrazolo[1,5-a]pyridine-3-carbonitrile] | 0.7 | 0.7 | 1 | 3 | 2.4 | 6 |
| Cc1c(-c2cc(O[C@H](C)c3ccc(F)cn3)c3c(C#N)cnn3c2)cnn1[C@H]1CC[C@H](OC(=O)[C@@H](N)C(C)C)CC1 [Compound 53, (1R,4S)-4-(4-(3-cyano-4-((R)-1-(5-fluoropyridin-2-yl)ethoxy)pyrazolo[1,5-a]pyridin-6-yl)-5-methyl-1H-pyrazol-1-yl)cyclohexyl L-valinate] | 0.3 | 0.3 | 0.5 | 1.5 | 1 | 3 |
| Cc1c(-c2cc(O[C@H](C)c3cccnc3)c3c(C#N)cnn3c2)cnn1[C@H]1CC[C@H](O)CC1 [Compound 54, 6-(1-((1r,4R)-4-hydroxycyclohexyl)-5-methyl-1H-pyrazol-4-yl)-4-((R)-1-(pyridin-3-yl)ethoxy)pyrazolo[1,5-a]pyridine-3-carbonitrile] | 0.4 | 0.4 | 0.5 | 1 | 1 | 12 |
| C[C@@H](Oc1cc(-c2cnn([C@H]3CC[C@H](O)CC3)c2)cn2ncc(C#N)c12)c1ccc(F)cn1 [Compound 55, 4-((R)-1-(5-fluoropyridin-2-yl)ethoxy)-6-(1-((1r,4R)-4-hydroxycyclohexyl)-1H-pyrazol-4-yl)pyrazolo[1,5-a]pyridine-3-carbonitrile] | 0.2 | 0.2 | 0.13 | 0.6 | 0.3 | 1.6 |
| C[C@@H](Oc1cc(-c2ccc(N3CCC(O)CC3)nc2)cn2ncc(C#N)c12)c1ccc(F)cn1 [Compound 56, (R)-4-(1-(5-fluoropyridin-2-yl)ethoxy)-6-(6-(4-hydroxypiperidin-1-yl)pyridin-3-yl)pyrazolo[1,5-a]pyridine-3-carbonitrile] | 0.2 | 0.2 | 0.2 | 1 | 0.6 | 3.4 |
| CN=S1(=O)CCC(n2cc(-c3cc(O[C@H](C)c4ccc(F)cn4)c4c(C#N)cnn4c3)cn2)CC1 (stereo partly drawn) [Compound 58, (R)-4-(1-(5-fluoropyridin-2-yl)ethoxy)-6-(1-(1-(methylimino)-1-oxidohexahydro-116-thiopyran-4-yl)-1H-pyrazol-4-yl)pyrazolo[1,5-a]pyridine-3-carbonitrile] | 0.15 | 0.15 | 0.15 | 1 | 0.45 | 1.6 |
| Cc1c(-c2cc(O[C@H](C)c3ccc(F)cn3)c3c(C#N)cnn3c2)nnn1[C@H]1CC[C@H](O)CC1 [Compound 59, 4-((R)-1-(5-fluoropyridin-2-yl)ethoxy)-6-(1-((1r,4R)-4-hydroxycyclohexyl)-5-methyl-1H-1,2,3-triazol-4-yl)pyrazolo[1,5-a]pyridine-3-carbonitrile] | 0.5 | 0.5 | 1 | 3 | 3 | 5.7 |
| CC[C@@H](Oc1cc(-c2cnn([C@H]3CC[C@H](O)CC3)c2C)cn2ncc(C#N)c12)c1ccc(F)cn1 [Compound 60, 4-((R)-1-(5-fluoropyridin-2-yl)propoxy)-6-(1-((1r,4R)-4-hydroxycyclohexyl)-5-methyl-1H-pyrazol-4-yl)pyrazolo[1,5-a]pyridine-3-carbonitrile] | 0.4 | 0.4 | 0.5 | 2 | 1.5 | 3.5 |
| Cc1c(-c2cc(O[C@H](C)c3ccc(F)cn3)c3c(C#N)cnn3c2)cnn1[C@H]1CCCC[C@@H]1O [Compound 61, 4-((R)-1-(5-fluoropyridin-2-yl)ethoxy)-6-(1-((1S,2S)-2-hydroxycyclohexyl)-5-methyl-1H-pyrazol-4-yl)pyrazolo[1,5-a]pyridine-3-carbonitrile] | 0.3 | 0.3 | 0.4 | 1.5 | 1 | 3 |
| Cc1c(-c2cc(O[C@H](C)c3ccc(F)cn3)c3c(C#N)cnn3c2)cnn1[C@@H]1CCCC[C@H]1O [Compound 62, 4-((R)-1-(5-fluoropyridin-2-yl)ethoxy)-6-(1-((1R,2R)-2-hydroxycyclohexyl)-5-methyl-1H-pyrazol-4-yl)pyrazolo[1,5-a]pyridine-3-carbonitrile] | 7 | 8 | 9 | 30 | 21.5 | 48 |
| C[C@@H](Oc1cc(-c2ccc(N3CC[C@H](O)[C@@H](O)C3)nc2)cn2ncc(C#N)c12)c1ccc(F)cn1 [Compound 63, 6-(6-((3S,4S)-3,4-dihydroxypiperidin-1-yl)pyridin-3-yl)-4-((R)-1-(5-fluoropyridin-2-yl)ethoxy)pyrazolo[1,5-a]pyridine-3-carbonitrile] | 0.3 | 0.3 | 0.3 | 1 | 1 | 3.3 |
| C[C@@H](Oc1cc(-c2ccc(N3CC[C@@H](O)[C@H](O)C3)nc2)cn2ncc(C#N)c12)c1ccc(F)cn1 [Compound 64, 6-(6-((3R,4R)-3,4-dihydroxypiperidin-1-yl)pyridin-3-yl)-4-((R)-1-(5-fluoropyridin-2-yl)ethoxy)pyrazolo[1,5-a]pyridine-3-carbonitrile] | 0.3 |  | 0.2 | 0.7 | 0.6 | 4 |
| Cc1c(-c2cc(O[C@H](CO)c3ccc(F)cn3)c3c(C#N)cnn3c2)cnn1[C@H]1CC[C@H](O)CC1 [Compound 65, 4-((S)-1-(5-fluoropyridin-2-yl)-2-hydroxyethoxy)-6-(1-((1r,4S)-4-hydroxycyclohexyl)-5-methyl-1H-pyrazol-4-yl)pyrazolo[1,5-a]pyridine-3-carbonitrile] | 3 | 3 | 3.5 | 10.6 | 9.5 | 21 |
| Cc1c(-c2cc(O[C@@H](CO)c3ccc(F)cn3)c3c(C#N)cnn3c2)cnn1[C@H]1CC[C@H](O)CC1 [Compound 66, 4-((R)-1-(5-fluoropyridin-2-yl)-2-hydroxyethoxy)-6-(1-((1r,4R)-4-hydroxycyclohexyl)-5-methyl-1H-pyrazol-4-yl)pyrazolo[1,5-a]pyridine-3-carbonitrile] | 105 | 110 | 106 | 369 | 139 | 793 |
| Cc1c(-c2cc(O[C@H](C)c3ccc(F)cn3)c3c(C#N)cnn3c2)cnn1[C@H]1CCC[C@H](O)C1 [Compound 67, 4-((R)-1-(5-fluoropyridin-2-yl)ethoxy)-6-(1-((1S,3S)-3-hydroxycyclohexyl)-5-methyl-1H-pyrazol-4-yl)pyrazolo[1,5-a]pyridine-3-carbonitrile] | 0.4 | 0.4 | 0.4 | 1.4 | 1 | 4 |
